# Measurements taken from publication PMC5285354, “Cationic Net Charge and Counter Ion Type as Antimicrobial Activity Determinant Factors of Short Lipopeptides” (Frontiers in Microbiology, 2017).
# Where a SMILES comes first, the peptide text is derived from it. The star is where a group is joined. Palmitoyl = CCCCCCCCCCCCCCCC(=O)*; Myristoyl = CCCCCCCCCCCCCC(=O)*
# Tests used:
# Assay type in all cases: cell-based
# [1] = system: Pseudomonas aeruginosa (ATCC 9027); conditions: ATCC 9027, 24 h
# [2] = system: Staphylococcus epidermidis (PCM 2118); conditions: for MIC Staphylococcus epidermidis: PCM 2118, 18 h; for MBC Staphylococcus epidermidis: PCM 2118, 24 h
# Outline: (§1)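 Lowest lipopeptide concentration (μg/mL) with no observable growth gave the MIC, alongside MBC/MFC, by CLSI microbroth dilution. Fungi: Sabouraud dextrose broth, 10^3 cfu/mL start, 25°C for 48 h; bacteria: MH broth, 10^5 cfu/mL, 37°C for 18 h. Run in triplicate, three separate days.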
# [3] = system: Candida tropicalis (PCM 2681); conditions: PCM 2681, 48 h
# Outline: as §1
# [4] = system: Pseudomonas aeruginosa (ATCC 9027); conditions: ATCC 9027, 18 h
# Outline: as §1
# [5] = system: Proteus vulgaris (PCM 2668); conditions: 18 h
# Outline: as §1
# [6] = system: Escherichia coli (ATCC 25922); conditions: for MBC Escherichia coli, lipopeptides without TFA counter ion / MIC Escherichia coli / MIC Escherichia coli, lipopeptides without TFA counter ion: ATCC 25922, 18 h; for MBC Escherichia coli: ATCC 25922, 24 h
# Outline: as §1
# [7] = system: Bacillus subtilis (ATCC 6633); conditions: for MIC Bacillus subtillis: ATCC 6633, 18 h; for MBC Bacillus subtillis: ATCC 6633, 24 h
# Outline: as §1
# [8] = system: Aspergillus brasiliensis (ATCC 16404); conditions: ATCC 16404, 48 h
# Outline: as §1
# [9] = system: Staphylococcus aureus (ATCC 25923); conditions: for MBC Staphylococcus aureus, lipopeptides without TFA counter ion / MIC Staphylococcus aureus / MIC Staphylococcus aureus, lipopeptides without TFA counter ion: ATCC 25923, 18 h; for MBC Staphylococcus aureus: ATCC 25923, 24 h
# Outline: as §1
# [10] = system: Candida albicans (ATCC 10231); conditions: ATCC 10231, 48 h
# Outline: as §1
# [11] = system: Klebsiella pneumoniae (ATCC 700603); conditions: for MBC Klebsiella pneumoniae, lipopeptides without TFA counter ion / MIC Klebsiella pneumoniae / MIC Klebsiella pneumoniae, lipopeptides without TFA counter ion: ATCC 700603, 18 h; for MBC Klebsiella pneumoniae: ATCC 700603, 24 h
# Outline: as §1
# [12] = system: Enterococcus faecalis (ATCC 29212); conditions: for MBC Enterococcus fecalis, lipopeptides without TFA counter ion / MIC Enterococcus fecalis / MIC Enterococcus fecalis, lipopeptides without TFA counter ion: ATCC 29212, 18 h; for MBC Enterococcus fecalis: ATCC 29212, 24 h
# Outline: as §1
# [13] = system: Proteus vulgaris (PCM 2668); conditions: 24 h
# [14] = system: Candida albicans (ATCC 10231)
# human red blood cells = conditions: 1 h
# Experimental: The hemolytic activity of the lipopeptides was determined by exposing human red blood cells (4% v/v) to tested compounds at graded concentrations. Red blood cells were obtained from a healthy donor. EDTA was used to prevent the blood clotting. The plasma was removed via centrifugation and the erythrocytes were washed three times with PBS. The red blood cells were suspended in PBS and incubated with different concentrations of lipopeptides at 37°C for 1 h and centrifuged for 5 min at 1000 × g. The supernatants were transferred to a sterile 96-well plate and hemoglobin release was measured with an Epoch microplate spectrophotometer (BioTek, USA) by recording the absorbance at 550 nm. A 0.1% Triton X-100 solution was used as the positive control (100% of hemolysis) and pure PBS as the negative (0% of hemolysis). Minimum hemolytic concentration (MHC) was taken as the lowest concentration which induced 10% of hemolysis.
MIC Staphylococcus epidermidis [2] [µg/mL],MIC Candida tropicalis [3] [µg/mL],MIC Pseudomonas aeruginosa [4] [µg/mL],MIC Proteus vulgaris [5] [µg/mL],MIC Escherichia coli [6] [µg/mL],MIC Bacillus subtillis [7] [µg/mL],MIC Aspergillus brasiliensis [8] [µg/mL],MIC Staphylococcus aureus [9] [µg/mL],Compound,MBC Pseudomonas aeruginosa [1] [µg/mL],MBC Staphylococcus epidermidis [2] [µg/mL],MFC Candida tropicalis [3] [µg/mL],"MBC Escherichia coli, lipopeptides without TFA counter ion [6] [µg/mL]","MIC Escherichia coli, lipopeptides without TFA counter ion [6] [µg/mL]",MBC Escherichia coli [6] [µg/mL],MBC Bacillus subtillis [7] [µg/mL],MFC Aspergillus brasiliensis [8] [µg/mL],"MBC Staphylococcus aureus, lipopeptides without TFA counter ion [9] [µg/mL]","MIC Staphylococcus aureus, lipopeptides without TFA counter ion [9] [µg/mL]",MBC Staphylococcus aureus [9] [µg/mL],MFC Candida albicans [10] [µg/mL],also measured
4,128,8,>512,8,8,128,8,CCCCCCCCCCCCCCCC(=O)N[C@@H](CCCCN)C(=O)N[C@@H](CCCCN)C(=O)N[C@@H](CCCCN)C(N)=O [C16-KKK-NH2],8,4,128,8,4,16,8,128,8,4,8,128,"MIC Candida albicans [10]: 128 µg/mL; MIC Candida albicans, lipopeptides without TFA counter ion [10]: 128 µg/mL; MBC Klebsiella pneumoniae, lipopeptides without TFA counter ion [11]: 4 µg/mL; MIC Klebsiella pneumoniae [11]: 4 µg/mL; MIC Klebsiella pneumoniae, lipopeptides without TFA counter ion [11]: 4 µg/mL; MBC Klebsiella pneumoniae [11]: 4 µg/mL; MBC Enterococcus fecalis, lipopeptides without TFA counter ion [12]: 8 µg/mL; MIC Enterococcus fecalis [12]: 16 µg/mL; MIC Enterococcus fecalis, lipopeptides without TFA counter ion [12]: 8 µg/mL; MBC Enterococcus fecalis [12]: 16 µg/mL; MBC Proteus vulgaris [13]: >512 µg/mL; MFC Candida albicans, lipopeptides without TFA counter ion [14]: 128 µg/mL"
4,128,8,>512,8,4,128,4,CCCCCCCCCCCCCCCC(=O)N[C@@H](CCCCN)C(=O)N[C@@H](CCCCN)C(=O)N[C@@H](CCCCN)C(=O)N[C@@H](CCCCN)C(N)=O [C16-KKKK-NH2] (Palmitoyl-KKKK-NH2),8,4,128,8,8,8,4,128,4,4,8,128,"MIC Candida albicans [10]: 128 µg/mL; MIC Candida albicans, lipopeptides without TFA counter ion [10]: 128 µg/mL; MBC Klebsiella pneumoniae, lipopeptides without TFA counter ion [11]: 4 µg/mL; MIC Klebsiella pneumoniae [11]: 4 µg/mL; MIC Klebsiella pneumoniae, lipopeptides without TFA counter ion [11]: 4 µg/mL; MBC Klebsiella pneumoniae [11]: 8 µg/mL; MBC Enterococcus fecalis, lipopeptides without TFA counter ion [12]: 8 µg/mL; MIC Enterococcus fecalis [12]: 16 µg/mL; MIC Enterococcus fecalis, lipopeptides without TFA counter ion [12]: 4 µg/mL; MBC Enterococcus fecalis [12]: 16 µg/mL; MBC Proteus vulgaris [13]: >512 µg/mL; MFC Candida albicans, lipopeptides without TFA counter ion [14]: 128 µg/mL"

# Second part, the molecule before the results:
Compound,MIC Staphylococcus epidermidis [2] [µg/mL],MIC Candida tropicalis [3] [µg/mL],MIC Pseudomonas aeruginosa [4] [µg/mL],MIC Proteus vulgaris [5] [µg/mL],MIC Escherichia coli [6] [µg/mL],MIC Bacillus subtillis [7] [µg/mL],MIC Aspergillus brasiliensis [8] [µg/mL],MIC Staphylococcus aureus [9] [µg/mL],MBC Pseudomonas aeruginosa [1] [µg/mL],MBC Staphylococcus epidermidis [2] [µg/mL],MFC Candida tropicalis [3] [µg/mL],"MBC Escherichia coli, lipopeptides without TFA counter ion [6] [µg/mL]","MIC Escherichia coli, lipopeptides without TFA counter ion [6] [µg/mL]",MBC Escherichia coli [6] [µg/mL],MBC Bacillus subtillis [7] [µg/mL],MFC Aspergillus brasiliensis [8] [µg/mL],"MBC Staphylococcus aureus, lipopeptides without TFA counter ion [9] [µg/mL]","MIC Staphylococcus aureus, lipopeptides without TFA counter ion [9] [µg/mL]",MBC Staphylococcus aureus [9] [µg/mL],MFC Candida albicans [10] [µg/mL],also measured
CCCCCCCCCCCCCC(=O)N[C@@H](CCCCN)C(=O)NCC(=O)N[C@@H](CCCCN)C(N)=O [C14-KGK-NH2] (Myristoyl-Lys-Gly-Lys-NH2),16,256,32,>512,128,8,128,64,64,16,256,128,128,128,8,128,64,64,128,128,"MIC Candida albicans [10]: 128 µg/mL; MIC Candida albicans, lipopeptides without TFA counter ion [10]: 128 µg/mL; MBC Klebsiella pneumoniae, lipopeptides without TFA counter ion [11]: 64 µg/mL; MIC Klebsiella pneumoniae [11]: 64 µg/mL; MIC Klebsiella pneumoniae, lipopeptides without TFA counter ion [11]: 64 µg/mL; MBC Klebsiella pneumoniae [11]: 64 µg/mL; MBC Enterococcus fecalis, lipopeptides without TFA counter ion [12]: 64 µg/mL; MIC Enterococcus fecalis [12]: 64 µg/mL; MIC Enterococcus fecalis, lipopeptides without TFA counter ion [12]: 64 µg/mL; MBC Enterococcus fecalis [12]: 64 µg/mL; MBC Proteus vulgaris [13]: >512 µg/mL; MFC Candida albicans, lipopeptides without TFA counter ion [14]: 128 µg/mL; Hemolysis HC10 (MHC), concentration of lipopeptide inducing 10% of hemolysis (human red blood cells): 128 µg/mL"
CCCCCCCCCCCCCCCC(=O)N[C@@H](CCCCN)C(N)=O [C16-K-NH2],8,>512,512,>512,512,8,>512,512,>512,16,>512,512,512,>512,8,>512,128,128,512,512,"MIC Candida albicans [10]: 512 µg/mL; MIC Candida albicans, lipopeptides without TFA counter ion [10]: 512 µg/mL; MBC Klebsiella pneumoniae, lipopeptides without TFA counter ion [11]: 512 µg/mL; MIC Klebsiella pneumoniae [11]: 512 µg/mL; MIC Klebsiella pneumoniae, lipopeptides without TFA counter ion [11]: 512 µg/mL; MBC Klebsiella pneumoniae [11]: >512 µg/mL; MBC Enterococcus fecalis, lipopeptides without TFA counter ion [12]: 32 µg/mL; MIC Enterococcus fecalis [12]: 32 µg/mL; MIC Enterococcus fecalis, lipopeptides without TFA counter ion [12]: 32 µg/mL; MBC Enterococcus fecalis [12]: 64 µg/mL; MBC Proteus vulgaris [13]: >512 µg/mL; MFC Candida albicans, lipopeptides without TFA counter ion [14]: 512 µg/mL; Hemolysis HC10 (MHC), concentration of lipopeptide inducing 10% of hemolysis (human red blood cells): 512 µg/mL"
CCCCCCCCCCCCCC(=O)N[C@@H](CCCCN)C(=O)N[C@@H](CCCCN)C(=O)N[C@@H](CCCCN)C(N)=O [C14-KKK-NH2],8,128,32,>512,128,4,64,64,128,8,128,128,128,128,4,64,32,32,64,128,"MIC Candida albicans [10]: 128 µg/mL; MIC Candida albicans, lipopeptides without TFA counter ion [10]: 256 µg/mL; MBC Klebsiella pneumoniae, lipopeptides without TFA counter ion [11]: 256 µg/mL; MIC Klebsiella pneumoniae [11]: 128 µg/mL; MIC Klebsiella pneumoniae, lipopeptides without TFA counter ion [11]: 128 µg/mL; MBC Klebsiella pneumoniae [11]: 128 µg/mL; MBC Enterococcus fecalis, lipopeptides without TFA counter ion [12]: 64 µg/mL; MIC Enterococcus fecalis [12]: 64 µg/mL; MIC Enterococcus fecalis, lipopeptides without TFA counter ion [12]: 32 µg/mL; MBC Enterococcus fecalis [12]: 64 µg/mL; MBC Proteus vulgaris [13]: >512 µg/mL; MFC Candida albicans, lipopeptides without TFA counter ion [14]: 256 µg/mL; Hemolysis HC10 (MHC), concentration of lipopeptide inducing 10% of hemolysis (human red blood cells): 256 µg/mL"
